Where two headings read alike, the source gives them in different places.
Key:
[1] = system: Ser^473 p-AKT in platelet-rich plasma; assay: Phosphorylation of AKT (Ser473) in platelet-rich plasma, MSD electrochemiluminescent immunoassay; assay type: in vivo, human
Procedure: Figure 1. Pharmacodynamic profile of vistusertib at 50 mg bd 3/7. Phosphorylation of AKT (Ser473) in platelet-rich plasma was quantified using MSD electrochemiluminescent immunoassays and normalised to corresponding total AKT values. Baseline values were established prior to the start of treatment. On C1D1, only paclitaxel (80 mg/m^2) was administered and a non-significant rise in p-ATK at 4 h following treatment was noted. […] On C1D8, the combination of paclitaxel and vistusertib was administered, which caused a significant reduction of p-AKT compared with baseline. Points represent individual patients, orange line represents mean of up to N = 6 patients. Four samples were excluded because of haemolysis, which interfered with the assay (*P<0.05; paired t-test).
pAkt was assessed in platelet rich plasma (PRP) using a sandwich immunoassay as per manufacturer’s instructions (K11100D, Meso Scale Discovery, Maryland, USA) which consisted of a multiplex assay with plates pre-coated with phospho(Ser473) Akt and total Akt capture antibodies. These plates were blocked for 1 hour, incubated with sample for 1 hour, and finally incubated with an anti-total Akt detection antibody conjugated to MSD-SULFO-TAG for 1 hour before being detected on a Meso Scale Discovery Sector Imager 6000 using electrochemiluminescence in order to determine the percentage of Akt phosphorylated. During validation the inter-assay precision ranged from 6.75 to 7.17%.

[2] = Pharmacokinetic sampling (plasma, LC-MS/MS) in the dose-escalation arm; settings: paclitaxel with vistusertib
Procedure: (§3) This method is applicable to the analysis of AZD2014 in human plasma treated with K2EDTA anticoagulant. AZD2014 and the internal standard (ISTD), 13C22H2AZ12729279 are extracted from human plasma by solid-phase extraction (SPE). After evaporation under nitrogen, the residue is reconstituted and analysed using liquid chromatography (LC) with tandem mass spectrometric detection (MS/MS). The standard curve range is from 20.0 to 20,000 ng/mL for AZD2014, using a plasma sample volume of 0.0250 mL.

[3] = system: patients with advanced solid tumours; assay: Toxicity (NCI-CTCAE V4.0), DLT and MTD in the dose-escalation cohort, vistusertib with weekly paclitaxel 80 mg/m^2
Procedure: The dose of paclitaxel administered was 80 mg/m^2 once weekly for 6/7 weeks in a 7-week cycle. In the first week of the dose-escalation cohorts, patients received only paclitaxel on C1D1, then vistusertib on C1D3 to allow for PK and PD samplings. Patients then received weekly paclitaxel (on days 8, 15, 22, 29, and 36) with vistusertib, also starting on days 8, 15, 22, 29, and 36, given orally twice daily either for three consecutive days per week (schedule A: 3/7 days, 6/7 weeks) or two consecutive days per week (schedule B: 2/7 days, 6/7 weeks). In the dose expansion, schedule A was taken forward with patients dosing with vistusertib weekly on days 1–3 for 6 weeks of a 7-week cycle.

[4] = system: high-grade serous ovarian cancer (HGSOC); assay: Ovarian cancer expansion: RECIST v1.1 / GCIG CA125 response and progression-free survival; assay type: in vivo, human
Procedure: (§1) RECIST v1.1 was used to assess tumour response supported by GCIG CA125 response in patients with HGSOC. Response was assessed at the end of every 7-week cycle.
(§2) Progression-free survival was estimated by the Kaplan–Meier method, beginning on the day of the first dose (C1D1) and continuing until disease progression. Patients who came off study for reasons other than disease progression (clinical or RECIST) were censored. This study is registered with ClinicalTrials.gov, identifier: NCT02193633.
Twenty-seven patients with relapsed/refractory HGSOC were treated at the RP2D. Two patients were replaced as per protocol and were not considered for assessment of response. The median number of previous treatments was three: the majority (26/27; 96%) of patients having received paclitaxel and 3/27 patients (11%) having previously received weekly paclitaxel (supplementary Table S2, available at Annals of Oncology online). The RECIST and CA125 response rates were 13/25 (52%) and 16/25 (64%), respectively (Figure 2A). The mPFS was 5·8 months (95% CI: 3.3–18.5).

[5] = system: squamous non-small-cell lung cancer (sqNSCLC); assay: Squamous lung cancer expansion: RECIST v1.1 response and progression-free survival; assay type: in vivo, human
Procedure: as §1, §2

[6] = system: patients with sqNSCLC; assay: Toxicity (NCI-CTCAE V4.0) in the squamous non-small cell lung cancer expansion cohort
Procedure: Patients administered with 80 mg/m^2 paclitaxel with 50 mg vistusertib bd 3/7 days for 6/7 weeks, dosing starting concurrently on day 1 of each week
Patients administered with 80 mg/m^2 paclitaxel with 25 mg vistusertib bd 3/7 days for 6/7 weeks, dosing starting concurrently on day 1 of each week treated at paclitaxel 80 mg/m^2/week and vistusertib 25 mg bd 3/7.

[7] = system: sqNSCLC; assay: RECIST response in the dose-escalation cohort; assay type: in vivo, human; settings: vistusertib + weekly paclitaxel
Procedure: as §1

[8] = in vivo
Procedure: as §3

[9] = design: method as in PMID 23375793, PMID 25805799; settings: cited from earlier work
[10] = system: ovarian cancer models; design: method as in PMID 29371953; settings: in vitro and in vivo; cited from earlier work
[11] = clinical; settings: human, in vivo, geometric mean; for AUC(0-t): AUClast of vistusertib; for Cmax: Cmax of vistusertib; for half-life: HL Lambda_z (half-life) of vistusertib
Procedure: as §3

[12] = system: patients; assay: Toxicity (NCI-CTCAE V4.0), whole study: hyperglycaemia incidence; settings: vistusertib + weekly paclitaxel
[13] = HGSOC expansion, 50 mg vistusertib bd 3/7 days + paclitaxel 80 mg/m^2
[14] = HGSOC expansion, 50 mg vistusertib bd 3/7 days + paclitaxel 80 mg/m^2, 25 patients
[15] = sqNSCLC expansion, 25 mg cohort
[16] = sqNSCLC expansion, 25 mg vistusertib bd 3/7 days + paclitaxel 80 mg/m^2
[17] = Lung Expansion 25 mg + paclitaxel (N=24), all grades
[18] = Lung Expansion 50 mg + paclitaxel (N=17), all grades

Q: For `CC(=O)O[C@H]1C(=O)[C@@]2(C)[C@H]([C@H](OC(=O)c3ccccc3)[C@]3(O)C[C@H](OC(=O)[C@H](O)[C@@H](NC(=O)c4ccccc4)c4ccccc4)C(C)=C1C3(C)C)[C@]1(OC(C)=O)CO[C@@H]1C[C@@H]2O` [paclitaxel], which “Increase in Ser^473 p-AKT levels in PRP” value ([1]; 4 h following 80 mg/m^2 paclitaxel alone (C1D1), P = 0.14, statistically non-significant) is on record?
A: 1.4 fold

Q: And the “Drug-drug PK interaction on drug exposure, combination versus either agent alone” value [2]?
A: no drug-drug PK interaction

Q: For `CNC(=O)c1cccc(-c2ccc3c(N4CCOC[C@@H]4C)nc(N4CCOC[C@@H]4C)nc3n2)c1` [vistusertib], which “Recommended phase II dose (RP2D) of vistusertib” value ([3]; bd 3/7 days for 6/7 weeks, with 80 mg/m^2 weekly paclitaxel) is on record?
A: 50 mg

Q: What about the Dose-limiting toxicities ([3]; in vivo) of the same compound?
A: rash

Q: And the Dose-limiting toxicities ([3]; schedule A (bd 3/7 days) with weekly paclitaxel 80 mg/m^2)?
A: fatigue and mucositis

Q: And the “Maximally tolerated dose (MTD) of vistusertib” value ([3]; schedule A, bd 3/7 days for 6/7 weeks, with 80 mg/m^2 weekly paclitaxel)?
A: 50 mg

Q: And the “Maximally tolerated dose (MTD) of vistusertib” value ([3]; schedule B, bd 2/7 days for 6/7 weeks, with 80 mg/m^2 weekly paclitaxel)?
A: 75 mg

Q: And the “Ser^473 p-AKT lower than corresponding time-point following paclitaxel alone” value ([1]; 4 h, vistusertib 50 mg bd 3/7 + paclitaxel)?
A: 62%

Q: And the “Ser^473 p-AKT in PRP, % of pre-dose levels” value ([1]; 4 h post-vistusertib, 50 mg bd 3/7 in addition to paclitaxel (C1D8), P = 0.0495)?
A: 53%

Q: What about the “Change of p-AKT in PRP after single dose of vistusertib alone” value ([1]; C1D4, 50 mg) of the same compound?
A: non-significant reduction

Q: And the “Patients with reduction in size of their tumour” value ([4]; HGSOC expansion at RP2D)?
A: 76%

Q: What about the “Patients with reduction in size of their tumour, number” value ([4]; HGSOC expansion at RP2D) of the same compound?
A: 19 of 25

Q: What about the “GCIG CA125 responses, patients” value [4, 13] of the same compound?
A: 16/25

Q: And the “Median progression-free survival (mPFS)” value [4, 13]?
A: 5.8 months

Q: What about the “RECIST responses (partial response), patients” value [4, 13] of the same compound?
A: 13/25

Q: And the “GCIG CA125 response rate” value [4, 14]?
A: 64%

Q: What about the RECIST response rate [4, 14] of the same compound?
A: 52%

Q: And the “RECIST response, N with PR” value ([4]; OVARIAN Expansion (50 mg AZD2014/80 mg Paclitaxel), 27 patients)?
A: 13 PR

Q: What about the “RECIST response, N with PR” value ([5]; LUNG Expansion (25 mg AZD2014/80 mg Paclitaxel), 24 patients) of the same compound?
A: 8

Q: And the “Patients with reduction in the size of their tumour” value [5, 15]?
A: 78%

Q: What about the “Patients with reduction in the size of their tumour, number” value [5, 15] of the same compound?
A: Eighteen of the 23

Q: And the “Median progression-free survival (mPFS)” value [5, 16]?
A: 5.8 months

Q: And the “RECIST responses (partial response), patients” value [5, 16]?
A: 8/23

Q: And the RECIST response rate ([5]; sqNSCLC expansion, 25 mg vistusertib bd 3/7 days + paclitaxel 80 mg/m^2, 23 patients)?
A: 35%

Q: And the “Abdominal cramps/pain, % of patients” value [6, 17]?
A: 8%

Q: What about the “Alopecia, % of patients” value [6, 17] of the same compound?
A: 54%

Q: And the “Haemoptysis, % of patients” value [6, 17]?
A: 4%

Q: And the “Aches and pain, % of patients” value [6, 18]?
A: 12%

Q: And the “Alopecia, % of patients” value [6, 18]?
A: 12%

Q: What about the “Tolerated dose of vistusertib in sqNSCLC” value ([6]; human, in vivo) of the same compound?
A: 25 mg

Q: What about the “Partial responses in patients with sqNSCLC” value [7] of the same compound?
A: two partial responses

Q: And the “AUC versus dose of vistusertib” value [8]?
A: approximately dose proportional

Q: What about the “Drug-drug PK interaction on drug exposure, combination versus either agent alone” value [8] of the same compound?
A: no drug-drug PK interaction

Q: What about the half-life [9] of the same compound?
A: short half-life

Q: What about the “Effect of the combination of vistusertib and paclitaxel on growth” value [10] of the same compound?
A: additive effect

Q: And the AUC(0-t) ([11]; 25 mg)?
A: 2090 ng·h/mL

Q: What about the Cmax ([11]; 25 mg) of the same compound?
A: 579 ng/mL

Q: And the half-life ([11]; 25 mg)?
A: 3.3 h

Q: And the AUC(0-t) ([11]; 50 mg)?
A: 2600 ng·h/mL

Q: And the Cmax ([11]; 50 mg)?
A: 840 ng/mL

Q: And the half-life ([11]; 50 mg)?
A: 1.8 h

Q: And the AUC(0-t) ([11]; 75 mg)?
A: 7540 ng·h/mL

Q: What about the Cmax ([11]; 75 mg) of the same compound?
A: 1840 ng/mL

Q: What about the half-life ([11]; 75 mg) of the same compound?
A: 2.7 h

Q: And the AUC(0-t) ([11]; 100 mg)?
A: 7560 ng·h/mL

Q: And the Cmax ([11]; 100 mg)?
A: 1960 ng/mL

Q: And the half-life ([11]; 100 mg)?
A: 3 h

Q: What about the “Hyperglycaemia, all grades, % of patients” value [12] of the same compound?
A: 11%

Q: What about the “Hyperglycaemia, grade 3/4, % of patients” value [12] of the same compound?
A: 1%

Reference: article PMC6158767, “Vistusertib (dual m-TORC1/2 inhibitor) in combination with paclitaxel in patients with high-grade serous ovarian and squamous non-small-cell lung cancer” (Annals of Oncology, 2018)
